Measurements reported in patent publication US12509453B2, “BRM/BRG1 inhibitors and uses thereof” (Foghorn Therapeutics Inc., priority 2019, dated 2025).

Experiments:
BRM = molecular target: T1, BRM (Homo sapiens, UniProt P51531); experiment: ATPase catalytic activity assay (ADP-Glo), BRM; assay type: biochemical; details: 30 nM BRM, 400 μM ATP; for IC50: 20 nM salmon sperm DNA, read-out: BRM IP50 (μM)*
T1 construct: made in house; host or cells: High Five insect cells
Protocol: (§1) The ATPase catalytic activity of BRM or BRG-1 was measured by the in vitro biochemical assay using ADP-Glo™ (Promega, V9102). The ADP-Glo™ kinase assay is performed in two steps once the reaction is complete. The first step is to deplete any unconsumed ATP in the reaction. The second step is to convert the reaction product ADP to ATP, which will be utilized by the luciferase to generate luminesce and be detected by a luminescence reader, such as Envision.
(§2) The assay reaction mixture (10 μL) contains 30 nM of BRM or BRG-1, 20 nM salmon sperm DNA (from Invitrogen, UltraPure™ Salmon Sperm DNA Solution, cat #15632011), and 400 μM of ATP in the ATPase assay buffer, which comprises of 20 mM Tris, pH 8, 20 mM MgCl2, 50 mM NaCl, 0.1% Tween-20, and 1 mM fresh DTT (Pierce™ DTT (Dithiothreitol), cat #20290). The reaction is initiated by the addition of the 2.5 μL ATPase solution to 2.5 μL ATP/DNA solution on low volume white Proxiplate-384 plus plate (PerkinElmer,cat #6008280) and incubates at room temperature for 1 hour. Then following addition of 5 μL of ADP-Glo™ Reagent provided in the kit, the reaction incubates at room temperature for 40 minutes. Then 10 μL of Kinase Detection Reagent provided in the kit is added to convert ADP to ATP, and the reaction incubates at room temperature for 60 minutes. Finally, luminescence measurement is collected with a plate-reading luminometer, such as Envision.
as §1, with “The” for “The ATPase catalytic activity of BRM or BRG-1 was measured by the in vitro biochemical assay using ADP-Glo™ (Promega, V9102). The”
as §2, with “BRG1,” for “BRG-1,”

BRG-1 = molecular target: T2, BRG-1 (Homo sapiens, UniProt P51532); experiment: ATPase catalytic activity assay (ADP-Glo), BRG-1; assay type: biochemical; details: 30 nM BRG-1, 400 μM ATP; for IC50: 20 nM salmon sperm DNA, read-out: BRG1 IP50 (μM)*; for Emax: read-out: BRG1 Max % Inhibition
T2 construct: made in house; host or cells: High Five insect cells
T2 sequence (P51532 whole entry): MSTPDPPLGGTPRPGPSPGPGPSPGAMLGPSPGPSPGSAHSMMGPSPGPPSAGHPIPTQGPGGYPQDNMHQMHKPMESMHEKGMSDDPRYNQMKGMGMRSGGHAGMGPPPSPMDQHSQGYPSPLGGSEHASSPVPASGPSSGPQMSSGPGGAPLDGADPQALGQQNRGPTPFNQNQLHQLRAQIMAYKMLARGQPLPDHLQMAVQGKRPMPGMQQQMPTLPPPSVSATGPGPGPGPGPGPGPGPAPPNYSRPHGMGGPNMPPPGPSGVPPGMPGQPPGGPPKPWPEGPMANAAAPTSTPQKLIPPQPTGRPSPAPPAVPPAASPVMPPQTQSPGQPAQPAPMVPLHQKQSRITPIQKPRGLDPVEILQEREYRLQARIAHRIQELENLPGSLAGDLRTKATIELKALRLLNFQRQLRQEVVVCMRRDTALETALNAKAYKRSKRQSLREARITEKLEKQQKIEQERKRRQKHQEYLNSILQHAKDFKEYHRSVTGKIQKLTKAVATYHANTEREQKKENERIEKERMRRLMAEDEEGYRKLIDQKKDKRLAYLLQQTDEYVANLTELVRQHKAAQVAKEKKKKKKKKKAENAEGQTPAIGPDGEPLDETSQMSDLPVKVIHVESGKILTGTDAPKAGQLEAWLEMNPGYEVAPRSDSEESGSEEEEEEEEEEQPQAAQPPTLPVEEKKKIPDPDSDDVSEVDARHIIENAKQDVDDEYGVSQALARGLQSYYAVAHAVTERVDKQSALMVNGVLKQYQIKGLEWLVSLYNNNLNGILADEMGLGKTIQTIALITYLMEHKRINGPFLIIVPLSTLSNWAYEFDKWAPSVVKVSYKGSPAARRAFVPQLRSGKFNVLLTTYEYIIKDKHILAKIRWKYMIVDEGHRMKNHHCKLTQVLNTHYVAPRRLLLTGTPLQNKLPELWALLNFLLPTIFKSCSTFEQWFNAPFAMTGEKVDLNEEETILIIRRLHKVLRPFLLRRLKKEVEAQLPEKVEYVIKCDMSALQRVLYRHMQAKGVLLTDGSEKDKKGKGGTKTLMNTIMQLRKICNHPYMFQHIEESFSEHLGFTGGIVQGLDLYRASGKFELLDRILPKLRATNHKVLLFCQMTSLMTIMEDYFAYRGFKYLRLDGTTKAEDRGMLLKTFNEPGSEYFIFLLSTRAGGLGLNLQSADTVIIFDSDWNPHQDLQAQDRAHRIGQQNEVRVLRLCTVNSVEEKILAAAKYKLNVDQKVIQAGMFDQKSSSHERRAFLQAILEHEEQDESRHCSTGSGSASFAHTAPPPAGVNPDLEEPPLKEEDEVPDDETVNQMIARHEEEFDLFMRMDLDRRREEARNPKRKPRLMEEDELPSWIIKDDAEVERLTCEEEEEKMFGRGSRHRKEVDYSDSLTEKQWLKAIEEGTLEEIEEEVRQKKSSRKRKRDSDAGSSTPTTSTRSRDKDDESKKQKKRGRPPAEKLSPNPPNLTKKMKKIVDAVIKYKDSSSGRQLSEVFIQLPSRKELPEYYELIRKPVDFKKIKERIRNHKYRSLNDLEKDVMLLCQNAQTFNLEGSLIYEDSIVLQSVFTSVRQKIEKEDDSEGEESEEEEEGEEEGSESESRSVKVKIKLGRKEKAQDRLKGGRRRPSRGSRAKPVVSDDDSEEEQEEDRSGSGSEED
Protocol: as §1, §2
as §1, with “The” for “The ATPase catalytic activity of BRM or BRG-1 was measured by the in vitro biochemical assay using ADP-Glo™ (Promega, V9102). The”
as §2, with “BRG1,” for “BRG-1,”

T1 sequence (P51531 whole entry): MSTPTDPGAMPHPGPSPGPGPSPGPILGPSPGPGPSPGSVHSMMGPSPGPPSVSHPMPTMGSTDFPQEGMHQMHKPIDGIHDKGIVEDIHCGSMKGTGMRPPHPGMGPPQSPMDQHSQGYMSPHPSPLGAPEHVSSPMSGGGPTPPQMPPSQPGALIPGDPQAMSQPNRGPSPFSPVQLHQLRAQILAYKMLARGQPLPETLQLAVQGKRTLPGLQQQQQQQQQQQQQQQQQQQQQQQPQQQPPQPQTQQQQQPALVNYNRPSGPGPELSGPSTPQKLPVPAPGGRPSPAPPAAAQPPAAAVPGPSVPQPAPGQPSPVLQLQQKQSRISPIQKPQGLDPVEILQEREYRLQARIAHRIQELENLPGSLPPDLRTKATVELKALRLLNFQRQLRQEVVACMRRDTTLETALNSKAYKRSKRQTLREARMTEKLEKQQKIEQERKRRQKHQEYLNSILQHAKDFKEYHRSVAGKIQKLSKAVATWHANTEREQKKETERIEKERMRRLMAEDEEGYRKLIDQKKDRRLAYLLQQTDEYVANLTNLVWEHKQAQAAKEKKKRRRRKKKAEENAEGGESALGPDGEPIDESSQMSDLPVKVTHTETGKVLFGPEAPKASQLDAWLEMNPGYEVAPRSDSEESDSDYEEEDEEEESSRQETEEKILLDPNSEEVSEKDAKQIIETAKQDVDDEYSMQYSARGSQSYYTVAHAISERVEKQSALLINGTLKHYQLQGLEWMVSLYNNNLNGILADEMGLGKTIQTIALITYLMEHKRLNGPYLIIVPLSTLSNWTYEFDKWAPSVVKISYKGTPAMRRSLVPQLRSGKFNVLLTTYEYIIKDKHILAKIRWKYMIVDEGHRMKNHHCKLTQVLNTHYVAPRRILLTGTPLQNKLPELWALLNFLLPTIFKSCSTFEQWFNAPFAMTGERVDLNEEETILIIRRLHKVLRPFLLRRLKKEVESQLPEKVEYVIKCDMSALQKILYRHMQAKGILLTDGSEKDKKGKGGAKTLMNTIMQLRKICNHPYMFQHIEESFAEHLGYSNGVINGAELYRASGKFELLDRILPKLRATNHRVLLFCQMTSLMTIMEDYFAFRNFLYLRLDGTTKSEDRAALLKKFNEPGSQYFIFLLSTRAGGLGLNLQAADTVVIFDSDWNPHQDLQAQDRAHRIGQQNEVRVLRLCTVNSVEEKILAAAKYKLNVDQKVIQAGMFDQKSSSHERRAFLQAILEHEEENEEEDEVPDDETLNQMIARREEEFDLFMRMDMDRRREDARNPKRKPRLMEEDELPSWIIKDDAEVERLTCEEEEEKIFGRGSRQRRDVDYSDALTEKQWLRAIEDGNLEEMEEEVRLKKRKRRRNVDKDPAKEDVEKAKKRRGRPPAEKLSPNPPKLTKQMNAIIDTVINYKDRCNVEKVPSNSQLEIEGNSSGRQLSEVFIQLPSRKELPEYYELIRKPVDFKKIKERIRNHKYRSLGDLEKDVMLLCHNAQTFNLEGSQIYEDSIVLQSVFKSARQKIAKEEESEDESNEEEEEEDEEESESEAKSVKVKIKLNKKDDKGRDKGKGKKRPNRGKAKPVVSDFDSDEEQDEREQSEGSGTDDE

BRM Max % Inhibition (BRM)	IC50 (BRM)	IC50 (BRG-1)	Emax (BRG-1)	SMILES
>80%	0.1 to 1 µM	1 to 5 µM	> 50%	CC(C)S(=O)(=O)n1cc(C(=O)NCC(=O)Nc2nc(-c3cccc(N4CCC(O)CC4)c3)cs2)cc1Cl [Compound 40, 5-chloro-N-(2-((4-(3-(4-hydroxypiperidin-1-yl)phenyl)thiazol-2-yl)amino)-2-oxoethyl)-1-(isopropylsulfonyl)-1H-pyrrole-3-carboxamide]
>95%	< 0.1 µM	0.1 to 1 µM	> 90%	Cc1nccc(-c2cccc(-c3csc(NC(=O)CNC(=O)c4cc(Cl)n(S(=O)(=O)C(C)C)c4)n3)c2)n1 [Compound 41, 5-chloro-1-isopropylsulfonyl-N-[2-[[4-[3-(2-methylpyrimidin-4-yl)phenyl]thiazol-2-yl]amino]-2-oxo-ethyl]pyrrole-3-carboxamide]
	0.1 to 1 µM	0.1 to 1 µM		Cc1c(C(=O)NCC(=O)Nc2nc(-c3cccc(N4C[C@@H](C)O[C@@H](C)C4)c3)cs2)cnn1C(C)(C)C [Compound 42, 1-(tert-butyl)-N-(2-((4-(3-((2R,6S)-2,6-dimethylmorpholino)phenyl)thiazol-2-yl)amino)-2-oxoethyl)-5-methyl-1H-pyrazole-4-carboxamide]
	< 0.1 µM	0.1 to 1 µM		C[C@@H]1CN(c2cccc(-c3csc(NC(=O)CNC(=O)c4cnn(C(C)(C)C)c4Cl)n3)c2)C[C@H](C)O1 [Compound 43, 1-(tert-butyl)-5-chloro-N-(2-((4-(3-((2R,6S)-2,6-dimethylmorpholino)phenyl)thiazol-2-yl)amino)-2-oxoethyl)-1H-pyrazole-4-carboxamide]
	< 0.1 µM	< 0.1 µM		C[C@@H]1CN(c2cccc(-c3csc(NC(=O)CNC(=O)c4cc(Cl)n(S(C)(=O)=O)c4)n3)c2)C[C@H](C)O1 [Compound 44, 5-chloro-N-(2-((4-(3-((2R,6S)-2,6-dimethylmorpholino)phenyl)thiazol-2-yl)amino)-2-oxoethyl)-1-(methylsulfonyl)-1H-pyrrole-carboxamide]
	< 0.1 µM	< 0.1 µM		Cc1cc(C(=O)NCC(=O)Nc2nc(-c3cccc(-c4ccnc(N(C)CC(=O)O)c4)c3)cs2)cn1S(C)(=O)=O [Compound 45, N-methyl-N-(4-(3-(2-(2-(5-methyl-1-(methylsulfonyl)-1H-pyrrole-3-carboxamido)acetamido)thiazol-4-yl)phenyl)pyridin-2-yl)glycine]
	< 0.1 µM	< 0.1 µM		CNC(=O)CN(C)c1cc(-c2cccc(-c3csc(NC(=O)CNC(=O)c4cc(C)n(S(C)(=O)=O)c4)n3)c2)ccn1 [Compound 46, 5-methyl-N-(2-((4-(3-(2-(methyl(2-(methylamino)-2-oxoethyl)amino)pyridin-4-yl)phenyl)thiazol-2-yl)amino)-2-oxoethyl)-1-(methylsulfonyl)-1H-pyrrole-3-carboxamide]
